Results as given in patent US11753407B2, “Compounds for treating spinal muscular atrophy” (PTC Therapeutics, Inc., priority 2012, dated 2023).

Legend:
[1] = tested on: SMN2 minigene mRNA (SMN2-A minigene) in HEK293H cells; experiment: SMN2 minigene mRNA splicing RT-qPCR assay in cultured cells; format: cell-based, human; conditions: Homo sapiens, HEK293-H; concentration increasing full length SMN2 mRNA 1.5-fold relative to vehicle-treated cells; HEK293H cells with SMN2-A minigene, 24 hours, 7-point concentration data; read-out: EC1.5x for production of full length SMN2 mRNA
Outline: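 Potency reflects the concentration that lifts full-length SMN2 minigene mRNA 1.5-fold above vehicle in stably transfected HEK293H cells after 24 h of treatment. Transcript abundance came from RT-qPCR as (1+E)^−Ct, normalized to GAPDH; endogenous SMN1/SMN2 are not detected.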

[2] = tested on: Smn protein in SMA patient fibroblast cells (GM03813); experiment: Smn protein assay in cultured cells (SMN HTRF); format: cell-based, human; conditions: SMA patient fibroblast cells, 48 hours; for maximum fold (Fold) increase of Smn protein: 7-point concentration data, fold relative to vehicle control; for EC1.5x for Smn protein expression: 7-point concentration curve, SMN HTRF, concentration producing 1.5 times Smn protein vs DMSO vehicle control
Outline: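 Smn protein abundance in treated SMA fibroblasts was measured by HTRF after 48 h compound exposure. The reported EC1.5× is the concentration producing 1.5 times vehicle Smn levels.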

melting point [°C] | SMILES | EC (1.5-fold increase) [1] [µM] | maximum fold (Fold) increase of Smn protein [2] | EC1.5x for Smn protein expression [2]
176 to 178 | COc1ccc(-c2cc(=O)n3cc(N4CCCN(C)CC4)ccc3n2)cc1F [Compound 166, 2-(3-fluoro-4-methoxyphenyl)-7-(4-methyl-1,4-diazepan-1-yl)-4H-pyrido[1,2-a]pyrimidin-4-one] | 0.3 to 1 | ** (a fold increase between >1.2 and ≤1.35 is indicated by two stars (**)) | 
183 to 187 | COc1ccc(-c2cc(=O)n3cc(N4CCNCC4)ccc3n2)cc1[N+](=O)[O-] [Compound 167, 2-(4-methoxy-3-nitrophenyl)-7-(piperazin-1-yl)-4H-pyrido[1,2-a]pyrimidin-4-one] | < 0.1 | *** (a fold increase between >1.35 and ≤1.5 is indicated by three stars (***)) | ** (an EC1.5× between >1 μM and ≤3 μM is indicated by two stars (**))
174 to 176 | CSc1ccc(-c2cc(=O)n3cc(N4CCNCC4)ccc3n2)cc1F [Compound 168, 2-[3-fluoro-4-(methylsulfanyl)phenyl]-7-(piperazin-1-yl)-4H-pyrido[1,2-a]pyrimidin-4-one] | 0.3 to 1 | * (A maximum fold increase of ≤1.2 is indicated by one star (*)) | 
208 to 213 | Cc1cn2cc(-c3cc(=O)n4cc(N5CCCN(C)CC5)ccc4n3)ccc2n1 [Compound 169, 7-(4-methyl-1,4-diazepan-1-yl)-2-(2-methylimidazo[1,2-a]pyridin-6-yl)-4H-pyrido[1,2-a]pyrimidin-4-one] | < 0.1 | **** (a fold increase between >1.5 and ≤1.65 is indicated by four stars (****)) | **** (an EC1.5x≤0.3 μM is indicated by four stars (****))
233 to 235 | Cc1nc2ccc(-c3cc(=O)n4cc(N5C[C@@H](C)N[C@@H](C)C5)ccc4n3)cc2o1 [Compound 172, 7-[(3R,5S)-3,5-dimethylpiperazin-1-yl]-2-(2-methyl-1,3-benzoxazol-6-yl)-4H-pyrido[1,2-a]pyrimidin-4-one] | < 0.1 | ***** (a fold increase >1.65 is indicated by five stars (*****)) | **** (an EC1.5x≤0.3 μM is indicated by four stars (****))
175 to 180 | COc1ncc(-c2cc(=O)n3cc(N4CCN[C@@H](C)C4)ccc3n2)cc1F [Compound 173, 2-(5-fluoro-6-methoxypyridin-3-yl)-7-[(3S)-3-methylpiperazin-1-yl]-4H-pyrido[1,2-a]pyrimidin-4-one] | 0.3 to 1 | ** (a fold increase between >1.2 and ≤1.35 is indicated by two stars (**)) | 
160 to 165 | COc1ncc(-c2cc(=O)n3cc(N4C[C@@H](C)N[C@@H](C)C4)ccc3n2)cc1F [Compound 174, 7-[(3R,5S)-3,5-dimethylpiperazin-1-yl]-2-(5-fluoro-6-methoxypyridin-3-yl)-4H-pyrido[1,2-a]pyrimidin-4-one] | 1 to 3 | ** (a fold increase between >1.2 and ≤1.35 is indicated by two stars (**)) | 
208 to 212 | Cc1nc2cc(-c3cc(=O)n4cc(N5C[C@@H](C)N[C@@H](C)C5)ccc4n3)ccc2s1 [Compound 175, 7-[(3R,5S)-3,5-dimethylpiperazin-1-yl]-2-(2-methyl-1,3-benzothiazol-5-yl)-4H-pyrido[1,2-a]pyrimidin-4-one] | < 0.1 | **** (a fold increase between >1.5 and ≤1.65 is indicated by four stars (****)) | *** (an EC1.5× between >0.3 μM and ≤1 μM is indicated by three stars (***))
214 to 218 | Cc1nc2cc(-c3cc(=O)n4cc(N5CCN(C)CC5)ccc4n3)ccc2s1 [Compound 176, 2-(2-methyl-1,3-benzothiazol-5-yl)-7-(4-methylpiperazin-1-yl)-4H-pyrido[1,2-a]pyrimidin-4-one] | 0.3 to 1 | *** (a fold increase between >1.35 and ≤1.5 is indicated by three stars (***)) | * (An EC1.5× for Smn protein expression between >3 μM and ≤10 μM is indicated by one star (*))
165 to 170 | Cc1nc2cc(-c3cc(=O)n4cc(N5CCCN(C)CC5)ccc4n3)ccc2s1 [Compound 177, 2-(2-methyl-1,3-benzothiazol-5-yl)-7-(4-methyl-1,4-diazepan-1-yl)-4H-pyrido[1,2-a]pyrimidin-4-one] | 0.1 to 0.3 | *** (a fold increase between >1.35 and ≤1.5 is indicated by three stars (***)) | 
254 to 256 | Cc1nc2cc(-c3cc(=O)n4cc(N5CCN6CCC[C@H]6C5)ccc4n3)ccc2s1 [Compound 178, 7-[(8aS)-hexahydropyrrolo[1,2-a]pyrazin-2(1H)-yl]-2-(2-methyl-1,3-benzothiazol-5-yl)-4H-pyrido[1,2-a]pyrimidin-4-one] | 0.3 to 1 | ** (a fold increase between >1.2 and ≤1.35 is indicated by two stars (**)) | 
204 to 206 | Cc1cn(-c2cc(=O)n3cc(N4CCN[C@@H](C)C4)ccc3n2)cn1 [Compound 180, 2-(4-methyl-1H-imidazol-1-yl)-7-[(3S)-3-methylpiperazin-1-yl]-4H-pyrido[1,2-a]pyrimidin-4-one] | 1 to 3 | **** (a fold increase between >1.5 and ≤1.65 is indicated by four stars (****)) | ** (an EC1.5× between >1 μM and ≤3 μM is indicated by two stars (**))
135 to 138 | CNCCNc1ccc2nc(-c3ccc(OC)c(OC)c3)cc(=O)n2c1 [Compound 181, 2-(3,4-dimethoxyphenyl)-7-{[2-(methylamino)ethyl]amino}-4H-pyrido[1,2-a]pyrimidin-4-one] | 1 to 3 | * (A maximum fold increase of ≤1.2 is indicated by one star (*)) | 
167 to 169 | COc1c(F)cc(-c2cc(=O)n3cc(N4CCNCC4)ccc3n2)cc1F [Compound 183, 2-(3,5-difluoro-4-methoxyphenyl)-7-(piperazin-1-yl)-4H-pyrido[1,2-a]pyrimidin-4-one] | 1 to 3 | ** (a fold increase between >1.2 and ≤1.35 is indicated by two stars (**)) | 
182 to 184 | COc1c(F)cc(-c2cc(=O)n3cc(N4CCN[C@@H](C)C4)ccc3n2)cc1F [Compound 184, 2-(3,5-difluoro-4-methoxyphenyl)-7-[(3S)-3-methylpiperazin-1-yl]-4H-pyrido[1,2-a]pyrimidin-4-one] | 1 to 3 | ** (a fold increase between >1.2 and ≤1.35 is indicated by two stars (**)) | 
196 to 201 | COc1ccc(-c2cc(=O)n3cc(N4CCC(N(C)C)CC4)ccc3n2)cc1F [Compound 185, 7-[4-(dimethylamino)piperidin-1-yl]-2-(3-fluoro-4-methoxyphenyl)-4H-pyrido[1,2-a]pyrimidin-4-one] | < 0.1 | *** (a fold increase between >1.35 and ≤1.5 is indicated by three stars (***)) | 
188 to 190 | C[C@H]1CN(c2ccc3nc(-c4cc(F)cc(Cl)c4)cc(=O)n3c2)CCN1 [Compound 189, 2-(3-chloro-5-fluorophenyl)-7-[(3S)-3-methylpiperazin-1-yl]-4H-pyrido[1,2-a]pyrimidin-4-one] | 0.3 to 1 | **** (a fold increase between >1.5 and ≤1.65 is indicated by four stars (****)) | *** (an EC1.5× between >0.3 μM and ≤1 μM is indicated by three stars (***))
180 to 184 | O=c1cc(-c2cc(F)cc(Cl)c2)nc2ccc(N3CCNCC3)cn12 [Compound 190, 2-(3-chloro-5-fluorophenyl)-7-(piperazin-1-yl)-4H-pyrido[1,2-a]pyrimidin-4-one] | 0.3 to 1 | **** (a fold increase between >1.5 and ≤1.65 is indicated by four stars (****)) | ** (an EC1.5× between >1 μM and ≤3 μM is indicated by two stars (**))
175 to 177 | Cc1nc2ccc(-c3cc(=O)n4cc(N5CCN[C@H](C)C5)ccc4n3)cc2o1 [Compound 193, 2-(2-methyl-1,3-benzoxazol-6-yl)-7-[(3R)-3-methylpiperazin-1-yl]-4H-pyrido[1,2-a]pyrimidin-4-one] | < 0.1 | ***** (a fold increase >1.65 is indicated by five stars (*****)) | **** (an EC1.5x≤0.3 μM is indicated by four stars (****))

SMILES | melting point [°C] | EC (1.5-fold increase) [1] [µM] | maximum fold (Fold) increase of Smn protein [2] | EC1.5x for Smn protein expression [2]
COc1ccc(-c2cc(=O)n3cc(C4=CCNCC4)ccc3n2)cc1F [Compound 186, 2-(3-fluoro-4-methoxyphenyl)-7-(1,2,3,6-tetrahydropyridin-4-yl)-4H-pyrido[1,2-a]pyrimidin-4-one] | 182 to 184 | < 0.1 | **** (a fold increase between >1.5 and ≤1.65 is indicated by four stars (****)) | *** (an EC1.5× between >0.3 μM and ≤1 μM is indicated by three stars (***))
